In US20250313528A1, “NOVEL COMPOUND AND PHARMACEUTICAL COMPOSITION FOR PREVENTING OR TREATING PULMONARY FIBROSIS COMPRISING SAME AS ACTIVE INGREDIENT” (GIL MEDICAL CENTER, priority 2022, published 2025):

What was measured:
[1] = tested on: bleomycin (BLM)-induced pulmonary fibrosis animal models; test: Body weight and lung weight in bleomycin-induced pulmonary fibrosis animal model; format: in vivo, C57BL/6N mice; details: BLM mice; for lung weight: end of the experiment, vs normal group and BLM group; for body weight gain during the experimental period: three times a week for three weeks
Protocol: The inhibitory effects of the finally selected Compound 1 and Compound 2 on pulmonary fibrosis were examined in bleomycin (BLM)-induced pulmonary fibrosis animal models.
(§1) Specifically, 7-week-old C57BL/6N mice were exposed to BLM (3-5 units/kg) via the airway. The compounds were administered orally at doses of 200 μg/kg and 500 μg/kg for Compound 1, and 100 μg/kg and 200 μg/kg for Compound 2, three times a week for three weeks starting the day after BLM exposure. Body weight gain was periodically measured during the experimental period, and lung weight was measured at the end of the experiment.

[2] = tested on: bleomycin (BLM)-induced pulmonary fibrosis animal models; test: Hydroxyproline quantification in lung tissue of BLM model; format: in vivo, C57BL/6N mice; details: BLM mice, compared to the BLM group
Protocol: as §1
Specifically, homogenized lung tissue was placed in 1.5 mL tubes in similar amounts to prevent thawing, and 100 μL of 12 M hydrochloric acid was added for hydrolysis at 120° C. for 3 hours. After centrifugation at 10,000×g for 5 minutes, the supernatant was transferred to a new tube, and 10 μL of the sample was transferred to a 96-well plate and evaporated at 60° C. Subsequently, 100 μL of chloramine T reagent/oxidation buffer mixture was added to each well, followed by 100 μL of para-dimethylaminobenzaldehyde reagent, and reacted at 60° C. for 90 minutes. Absorbance was measured at 540 nm, and the content was determined using a standard calibration curve prepared in the same manner.

fibronectin and α-SMA = test: Western blotting of fibrosis-related proteins in TGF-β1-induced DHLF-IPF cells; format: cell-based, human; details: TGF-β1 1 ng/ml, 10 μM, FIG. 4b
Protocol: Specifically, to extract fibronectin and α-SMA proteins, the cells were washed once with cold PBS and then RIPA buffer (150 mM NaCl, 0.5% Triton X-100, 50 mM Tris-HCl, pH 7.4, 25 mM NaF, 20 mM EGTA), which was added with a protease inhibitor cocktail, was added thereto to lyse the cells. Then, the proteins were quantified using a BCA protein assay kit. All protein samples were subjected to electrophoresis at 10 μg on 8% to 10% PAGE gels and then transferred to 0.2 μm PVDF membranes (EMD Millipore, MA, USA). The membranes to which the protein was transferred were blocked with 5% BSA or 5% skim milk for 1 hour, and then primary antibodies were added thereto and incubated overnight at 4° C. The following day, the membranes were washed three times with PBST, and then HRP-conjugated secondary antibodies were added and reacted at room temperature for 1 hour. The PVDF membranes prepared through such procedures were smeared with ECL (Luminata™ Crescendo, EMD Millipore) and exposed to a fluorescence reader to confirm the level of protein expression.
To compare the changes in fibrosis-related protein expression by treating normal MRC-5 and diseased DHLF-IPF cell lines induced with pulmonary fibrosis by TGF-β1 with SFN and the two candidate compounds, Western blotting was performed.
The specific experimental methods are the same as in Example 2. TGF-β1 was treated at 1 ng/ml to induce fibrosis, and sulforaphane and the two compounds each were treated at a concentration of 10 μM.

DHLF-IPF cells [3] = test: Microscopic examination of cell morphology and proliferation, TGF-β1-induced DHLF-IPF; format: cell-based, human; details: microscope, FIG. 4a
Protocol: The effects of the two candidate compounds of sulforaphane prodrugs on cytotoxicity and morphological changes in normal lung fibroblast MRC-5 cells and diseased lung fibroblast DHLF-IPF cells were examined. The diseased lung fibroblast DHLF-IPF cell line was purchased from Lonza and cultured in FGM™-2 Fibroblast Growth Medium-2 BulletKit™ at 37° C. in a 5% CO2 incubator.
Additionally, the changes in cell morphology of two lung fibroblasts induced by TGF-β1 according to the treatments with Compound 1 and Compound 2 were examined with the naked eye through a microscope.

DHLF-IPF cells [4] = test: Transwell migration assay, DHLF-IPF; format: cell-based, human; details: inherent high migration, 24 hours, FIG. 5
Protocol: (§2) In accordance with the characteristics of myofibroblasts, in which the increased expression of proteins related to fibrogenesis leads to an increase of cell migration and invasion, migration and wound healing assays were conducted to examine the effects of the final selected Compound 1 and Compound 2 on cell migration using normal and diseased fibroblasts.
(§3) A 24-well culture plate was prepared with 500 μL of medium including FBS, and an 8 μm pore size insert was placed on top. Inside the insert, 300 μL of medium without FBS was added, and MRC-5 and DHLF-IPF cells were seeded at a density of 1×10^5 cells. […] After incubation, the medium inside the 8 μm pore polycarbonate membrane insert was carefully removed, washed with DPBS, and fixed in methanol for 5 minutes. The cells were then stained with Mayer's Haematoxylin for 8 minutes after washing twice with triple-distilled water. The stained cells were washed with DPBS, gently wiped with a cotton swab inside the insert, and the membrane was cut out and mounted on a slide. The migrated cells were counted under a microscope at 200× magnification.

MRC-5 cells [5] = test: Wound healing assay, MRC-5; format: cell-based, human; details: MRC-5, TGF-β1 treatment, 24 hours, FIG. 6
Protocol: The effects of Compound 1 and Compound 2, selected in Example 3, on cell migration (wound healing) in MRC-5 and DHLF-IPF cells were examined.
Specifically, cells (1×10^5 cells/well) were seeded in a 60 mm dish to achieve approximately 90% confluency and cultured for 24 hours. Subsequently, a straight line was scratched on the bottom with a 200 μL pipette tip, and the detached cells were removed by washing once with Dulbecco's Phosphate-Buffered Saline (DPBS). The wound was photographed under a microscope, and treatments with TGF-β1 alone, TGF-β1+SFN, TGF-β1+GSF-016, and TGF-1+GSF-018 were applied and cultured for approximately 24 hours, after which the wound was re-photographed. The images taken at 24 hours of culture were analyzed using the Image J (Fiji package) software to measure the distance between cells, and the relative migration was expressed as a percentage (%) compared to the control group.

MRC-5 cells [6] = test: Transwell migration assay, MRC-5; format: cell-based, human; details: MRC-5, TGF-β1 treatment, 24 hours, FIG. 5
Protocol: as §2, §3

| Compound | lung weight ([1]; 100 μg/kg orally) | body weight gain during the experimental period ([1]; 100 μg/kg orally) | lung weight ([1]; 200 μg/kg orally) | body weight gain during the experimental period ([1]; 200 μg/kg orally) | hydroxyproline content in lung tissue ([2]; 100 μg/kg orally) | hydroxyproline content in lung tissue ([2]; 200 μg/kg orally) | expression levels of fibronectin and α-SMA protein (fibronectin and α-SMA) | cell morphology (DHLF-IPF cells [3]) | inhibition of cell proliferation compared to sulforaphane-treated group (DHLF-IPF cells [3]) | cell migration (transwell) (DHLF-IPF cells [4]) | cell migration (wound healing) (MRC-5 cells [5]) | cell migration (transwell) (MRC-5 cells [6]) | body weight gain during the experimental period ([1]; 500 μg/kg orally) |
| --- | --- | --- | --- | --- | --- | --- | --- | --- | --- | --- | --- | --- | --- |
| C=CCOC(=O)C(CSC(=S)NCCCC[S+](C)[O-])NC(C)=O (stereo not drawn) [Compound 2] | similarly lower levels | steady increase in body weight, approaching levels similar to the normal group | similarly lower levels | steady increase in body weight, approaching levels similar to the normal group | significant reductions | significant reductions | significantly reducing the expression levels compared to sulforaphane | thin and elongated shape, which is similar to that of the control group | inhibition of cell proliferation was more significant | significantly inhibited in a dose-dependent manner | significantly inhibited in a dose-dependent manner | significantly inhibited in a dose-dependent manner |  |
| CCOC(=O)C(CSC(=S)NCCCC[S+](C)[O-])NC(C)=O (stereo not drawn) [Compound 1] |  |  |  | steady increase |  | reduced | significantly reducing the expression levels compared to sulforaphane | thin and elongated shape, which is similar to that of the control group | inhibition of cell proliferation was more significant | significantly inhibited in a dose-dependent manner | significantly inhibited in a dose-dependent manner | significantly inhibited in a dose-dependent manner | initially decreased and then gradually increased |
